Columns and labels:
Type in all cases: in vivo
[1] = system: Aphis gossypii; experiment: Reference Test Example 3 Pest control test of Aphis gossypii (foliar treatment, single agent); set-up: Aphis gossypii (Reference Test Example 3), mortality of larvae: concentration or dose not given beside the values; conditions: foliar treatment, single agent
[2] = system: Laodelphax striatella; experiment: Reference Test Example 18 Pest control test of Laodelphax striatella (wheat seedling root treatment); conditions: wheat seedling roots treated; four days after release; 20 μg/seedling
Description: The drug was absorbed from the roots for 72 hours, and then ten second instar larvae of Laodelphax striatella were each released thereto. […] The test was performed in duplicate.

[3] = system: Plutella xylostella; experiment: Reference Test Example 1 Pest control test of Plutella xylostella (foliar treatment, single agent); set-up: Plutella xylostella (Reference Test Example 1), mortality of larvae: concentration or dose not given beside the values; conditions: foliar treatment, single agent
Description: After an air drying process, second instar larvae were released thereto. […] Test in duplicate.

FC(F)C(=S)N=c1ccccn1Cc1ccc(Cl)nc1 [Compound 1-21]
Aphis gossypii (Reference Test Example 3), mortality of larvae [1]: 100% | Laodelphax striatella (Reference Test Example 18), mortality of larvae [2]: 100% | Plutella xylostella (Reference Test Example 1), mortality of larvae [3]: 80%

FC(F)(Cl)C(=S)N=c1ccccn1Cc1ccc(Cl)nc1 [Compound 1-22]
Laodelphax striatella (Reference Test Example 18), mortality of larvae [2]: 100% | Plutella xylostella (Reference Test Example 1), mortality of larvae [3]: 100%

FC(F)(F)C(F)(F)C(=S)N=c1ccccn1Cc1ccc(Cl)nc1 [Compound 1-23]
Laodelphax striatella (Reference Test Example 18), mortality of larvae [2]: 100% | Plutella xylostella (Reference Test Example 1), mortality of larvae [3]: 100%

C/N=C(/N=c1\ccccn1Cc1ccc(Cl)nc1)C(F)(F)F [Compound 1-42, N-[1-((6-chloropyridin-3-yl)methyl)pyridin-2(1H)-ylidene]-2,2,2-trifluoro-N′-methylacetimidamide]
Aphis gossypii (Reference Test Example 3), mortality of larvae [1]: 100% | Laodelphax striatella (Reference Test Example 18), mortality of larvae [2]: 100% | Plutella xylostella (Reference Test Example 1), mortality of larvae [3]: 100%

CSCCN=C(N=c1ccccn1Cc1ccc(Cl)nc1)C(F)(F)F [Compound 1-150]
Aphis gossypii (Reference Test Example 3), mortality of larvae [1]: 100% | Laodelphax striatella (Reference Test Example 18), mortality of larvae [2]: 80% | Plutella xylostella (Reference Test Example 1), mortality of larvae [3]: 100%

O=C(/N=c1\ccccn1Cc1ccc(F)nc1)C(F)F [Compound 3-3, 2,2-difluoro-N-[1-((6-fluoropyridin-3-yl)methyl)pyridin-2(1H)-ylidene]acetamide]
Aphis gossypii (Reference Test Example 3), mortality of larvae [1]: 100% | Laodelphax striatella (Reference Test Example 18), mortality of larvae [2]: 80% | Plutella xylostella (Reference Test Example 1), mortality of larvae [3]: 50%

O=C(N=c1ccccn1Cc1ccc(F)nc1)C(F)(F)Cl [Compound 3-4]
Aphis gossypii (Reference Test Example 3), mortality of larvae [1]: 100% | Laodelphax striatella (Reference Test Example 18), mortality of larvae [2]: 100% | Plutella xylostella (Reference Test Example 1), mortality of larvae [3]: 100%

O=C(N=c1ccccn1Cc1ccc(F)nc1)C(F)(F)C(F)(F)F [Compound 3-5]
Aphis gossypii (Reference Test Example 3), mortality of larvae [1]: 55% | Laodelphax striatella (Reference Test Example 18), mortality of larvae [2]: 80% | Plutella xylostella (Reference Test Example 1), mortality of larvae [3]: 100%

Fc1ccc(Cn2ccccc2=NC(=S)C(F)(F)F)cn1 [Compound 3-20]
Aphis gossypii (Reference Test Example 3), mortality of larvae [1]: 100% | Laodelphax striatella (Reference Test Example 18), mortality of larvae [2]: 80% | Plutella xylostella (Reference Test Example 1), mortality of larvae [3]: 55%

O=C(N=c1ccccn1Cc1ccc(Br)nc1)C(F)F [Compound 4-3]
Laodelphax striatella (Reference Test Example 18), mortality of larvae [2]: 100% | Plutella xylostella (Reference Test Example 1), mortality of larvae [3]: 100%

O=C(N=c1ccccn1Cc1ccc(Br)nc1)C(F)(F)Cl [Compound 4-4]
Laodelphax striatella (Reference Test Example 18), mortality of larvae [2]: 100% | Plutella xylostella (Reference Test Example 1), mortality of larvae [3]: 100%

O=C(N=c1ccccn1Cc1ccc(Br)nc1)C(F)(F)C(F)(F)F [Compound 4-5]
Aphis gossypii (Reference Test Example 3), mortality of larvae [1]: 100% | Laodelphax striatella (Reference Test Example 18), mortality of larvae [2]: 100% | Plutella xylostella (Reference Test Example 1), mortality of larvae [3]: 100%

FC(F)(F)C(=S)N=c1ccccn1Cc1ccc(Br)nc1 [Compound 4-20]
Aphis gossypii (Reference Test Example 3), mortality of larvae [1]: 100% | Laodelphax striatella (Reference Test Example 18), mortality of larvae [2]: 100% | Plutella xylostella (Reference Test Example 1), mortality of larvae [3]: 100%

O=C(N=c1ccccn1Cc1cnc(Cl)c(F)c1)C(F)F [Compound 5-3]
Laodelphax striatella (Reference Test Example 18), mortality of larvae [2]: 100% | Plutella xylostella (Reference Test Example 1), mortality of larvae [3]: 100%

O=C(N=c1ccccn1Cc1cnc(Cl)c(F)c1)C(F)(F)Cl [Compound 5-4]
Laodelphax striatella (Reference Test Example 18), mortality of larvae [2]: 100% | Plutella xylostella (Reference Test Example 1), mortality of larvae [3]: 100%

Fc1cc(Cn2ccccc2=NC(=S)C(F)(F)F)cnc1Cl [Compound 5-20]
Laodelphax striatella (Reference Test Example 18), mortality of larvae [2]: 100% | Plutella xylostella (Reference Test Example 1), mortality of larvae [3]: 100%

O=C(N=c1ccccn1Cc1cnc(Cl)nc1)C(F)F [Compound 6-3]
Laodelphax striatella (Reference Test Example 18), mortality of larvae [2]: 100% | Plutella xylostella (Reference Test Example 1), mortality of larvae [3]: 80%

O=C(N=c1ccccn1Cc1cnc(Cl)nc1)C(F)(F)Cl [Compound 6-4]
Aphis gossypii (Reference Test Example 3), mortality of larvae [1]: 100% | Laodelphax striatella (Reference Test Example 18), mortality of larvae [2]: 100% | Plutella xylostella (Reference Test Example 1), mortality of larvae [3]: 90%

N#Cc1cccn(Cc2ccc(Cl)nc2)c1=NC(=O)C(F)(F)F [Compound 102-2]
Aphis gossypii (Reference Test Example 3), mortality of larvae [1]: 100% | Laodelphax striatella (Reference Test Example 18), mortality of larvae [2]: 100% | Plutella xylostella (Reference Test Example 1), mortality of larvae [3]: 10%

O=C(N=c1ccccn1Cc1ccc(Cl)nc1)C(F)(F)F [Compound P-212]
Aphis gossypii (Reference Test Example 3), mortality of larvae [1]: 100% | Laodelphax striatella (Reference Test Example 18), mortality of larvae [2]: 100% | Plutella xylostella (Reference Test Example 1), mortality of larvae [3]: 100%

O=C(N=c1ccccn1Cc1cnc(Cl)s1)C(F)(F)F [Compound P-213]
Aphis gossypii (Reference Test Example 3), mortality of larvae [1]: 100% | Laodelphax striatella (Reference Test Example 18), mortality of larvae [2]: 100% | Plutella xylostella (Reference Test Example 1), mortality of larvae [3]: 100%

O=C(N=c1ccc(Cl)cn1Cc1ccc(Cl)nc1)C(F)(F)F [Compound P-215]
Aphis gossypii (Reference Test Example 3), mortality of larvae [1]: 80% | Laodelphax striatella (Reference Test Example 18), mortality of larvae [2]: 75% | Plutella xylostella (Reference Test Example 1), mortality of larvae [3]: 100%

O=C(N=c1ccc(F)cn1Cc1ccc(Cl)nc1)C(F)(F)F [Compound P-216]
Aphis gossypii (Reference Test Example 3), mortality of larvae [1]: 95% | Laodelphax striatella (Reference Test Example 18), mortality of larvae [2]: 100% | Plutella xylostella (Reference Test Example 1), mortality of larvae [3]: 100%

O=C(N=c1ccc(Cl)cn1Cc1cnc(Cl)s1)C(F)(F)F [Compound P-218]
Aphis gossypii (Reference Test Example 3), mortality of larvae [1]: 60% | Plutella xylostella (Reference Test Example 1), mortality of larvae [3]: 100%

O=C(N=c1ccc(F)cn1Cc1cnc(Cl)s1)C(F)(F)F [Compound P-219]
Aphis gossypii (Reference Test Example 3), mortality of larvae [1]: 85% | Plutella xylostella (Reference Test Example 1), mortality of larvae [3]: 80%

Cc1ccn(Cc2ccc(Cl)nc2)c(=NC(=O)C(F)(F)F)c1 [Compound P-222]
Aphis gossypii (Reference Test Example 3), mortality of larvae [1]: 100% | Laodelphax striatella (Reference Test Example 18), mortality of larvae [2]: 100%

Cc1ccc(=NC(=O)C(F)(F)F)n(Cc2ccc(Cl)nc2)c1 [Compound P-223]
Aphis gossypii (Reference Test Example 3), mortality of larvae [1]: 75% | Laodelphax striatella (Reference Test Example 18), mortality of larvae [2]: 75%

O=C(N=c1ccccn1Cc1ccc(Cl)cc1)C(F)(F)F [Compound P-225]
Aphis gossypii (Reference Test Example 3), mortality of larvae [1]: 90%

O=C(N=c1ccccn1Cc1cccnc1)C(F)(F)F [Compound P-226]
Aphis gossypii (Reference Test Example 3), mortality of larvae [1]: 100% | Plutella xylostella (Reference Test Example 1), mortality of larvae [3]: 60%

O=C(N=c1ccccn1Cc1cnc(Cl)c(F)c1)C(F)(F)F [Compound P-227]
Aphis gossypii (Reference Test Example 3), mortality of larvae [1]: 100% | Laodelphax striatella (Reference Test Example 18), mortality of larvae [2]: 100% | Plutella xylostella (Reference Test Example 1), mortality of larvae [3]: 100%

O=C(N=c1ccccn1Cc1ccc(C(F)(F)F)nc1)C(F)(F)F [Compound P-228]
Aphis gossypii (Reference Test Example 3), mortality of larvae [1]: 95% | Laodelphax striatella (Reference Test Example 18), mortality of larvae [2]: 100% | Plutella xylostella (Reference Test Example 1), mortality of larvae [3]: 30%

O=C(N=c1ccccn1Cc1ccc(F)nc1)C(F)(F)F [Compound P-229]
Aphis gossypii (Reference Test Example 3), mortality of larvae [1]: 100% | Laodelphax striatella (Reference Test Example 18), mortality of larvae [2]: 100% | Plutella xylostella (Reference Test Example 1), mortality of larvae [3]: 100%

O=C(N=c1ccccn1Cc1cnc(Cl)c(Cl)c1)C(F)(F)F [Compound P-230]
Aphis gossypii (Reference Test Example 3), mortality of larvae [1]: 100% | Plutella xylostella (Reference Test Example 1), mortality of larvae [3]: 100%

O=C(N=c1ccccn1Cc1ccc(Br)nc1)C(F)(F)F [Compound P-231]
Aphis gossypii (Reference Test Example 3), mortality of larvae [1]: 100% | Laodelphax striatella (Reference Test Example 18), mortality of larvae [2]: 100% | Plutella xylostella (Reference Test Example 1), mortality of larvae [3]: 100%

O=C(N=c1cc(F)ccn1Cc1ccc(Cl)nc1)C(F)(F)F [Compound P-232]
Aphis gossypii (Reference Test Example 3), mortality of larvae [1]: 80%

O=C(N=c1c(F)cccn1Cc1ccc(Cl)nc1)C(F)(F)F [Compound P-233]
Aphis gossypii (Reference Test Example 3), mortality of larvae [1]: 100% | Laodelphax striatella (Reference Test Example 18), mortality of larvae [2]: 75%

O=C(N=c1ccccn1Cc1ccc(Cl)nc1)C(Cl)Cl [Compound P-234]
Aphis gossypii (Reference Test Example 3), mortality of larvae [1]: 100% | Laodelphax striatella (Reference Test Example 18), mortality of larvae [2]: 100% | Plutella xylostella (Reference Test Example 1), mortality of larvae [3]: 100%

O=C(N=c1ccccn1Cc1ccc(Cl)nc1)C(Cl)(Cl)Cl [Compound P-235]
Aphis gossypii (Reference Test Example 3), mortality of larvae [1]: 95% | Laodelphax striatella (Reference Test Example 18), mortality of larvae [2]: 75% | Plutella xylostella (Reference Test Example 1), mortality of larvae [3]: 100%

O=C(CCl)N=c1ccccn1Cc1ccc(Cl)nc1 [Compound P-236]
Aphis gossypii (Reference Test Example 3), mortality of larvae [1]: 100%

O=C(N=c1ccccn1Cc1ccc(Cl)nc1)C(F)F [Compound P-238]
Aphis gossypii (Reference Test Example 3), mortality of larvae [1]: 100% | Laodelphax striatella (Reference Test Example 18), mortality of larvae [2]: 100% | Plutella xylostella (Reference Test Example 1), mortality of larvae [3]: 100%

O=C(N=c1ccccn1Cc1ccc(Cl)nc1)C(F)(F)Cl [Compound P-239]
Aphis gossypii (Reference Test Example 3), mortality of larvae [1]: 100% | Laodelphax striatella (Reference Test Example 18), mortality of larvae [2]: 100% | Plutella xylostella (Reference Test Example 1), mortality of larvae [3]: 100%

O=C(N=c1ccccn1Cc1ccc(Cl)nc1)C(Cl)Br (stereo not drawn) [Compound P-240]
Aphis gossypii (Reference Test Example 3), mortality of larvae [1]: 100% | Laodelphax striatella (Reference Test Example 18), mortality of larvae [2]: 100%

O=C(N=c1ccccn1Cc1ccc(Cl)nc1)C(Br)Br [Compound P-241]
Aphis gossypii (Reference Test Example 3), mortality of larvae [1]: 100% | Laodelphax striatella (Reference Test Example 18), mortality of larvae [2]: 100%

O=C(N=c1ccccn1Cc1ccc(Cl)nc1)C(F)(F)C(F)(F)F [Compound P-242]
Aphis gossypii (Reference Test Example 3), mortality of larvae [1]: 100% | Laodelphax striatella (Reference Test Example 18), mortality of larvae [2]: 100% | Plutella xylostella (Reference Test Example 1), mortality of larvae [3]: 100%

O=C(CBr)N=c1ccccn1Cc1ccc(Cl)nc1 [Compound P-244]
Aphis gossypii (Reference Test Example 3), mortality of larvae [1]: 100% | Laodelphax striatella (Reference Test Example 18), mortality of larvae [2]: 100%

Source: US11771086B2, “Pest control composition including novel iminopyridine derivative” (priority 2012, dated 2023)
